# What was measured:
# SW480 cells = details: IC50 and 2×IC50, 48 h and 72 h
# Experimental: SW480 cells were incubated with the dye and seeded according to the procedure recommended by CFSE package insert (BD Horizon™). […] After 48 h and 72 h, both floating and attached cells were collected, washed with PBS, centrifuged at 500 rpm for 10 min and the pellet resuspended in PBS before cytometer acquisition.
# The effects on proliferation were also studied using carboxyfluorescein succinimidyl ester assay (CFSE). […] Thus, when cell proliferation is inhibited, we observe an increase of the intracellular fluorescence.
# The FIG. 3 illustrates the quantification of CFSE median fluorescence intensity normalized to T0 after 48 and 72 h of incubation with IC50 and 2×IC50, in SW480 cell line. The values represent mean±S.D. of at least three independent experiments. Statistical analysis was performed by two-way ANOVA with Dunnett's multiple comparisons test. **P≤0.01; ***P≤0.001; ****P≤0.0001 compared with negative control.
# breast cancer cell lines [1] = details: cited from earlier work
# [2] = test system: KRAS, pAKT, total-AKT, pERK and total-ERK proteins, in SW480 cells; test: Western blot analysis, SW480 cells harboring KRAS mutation; assay type: cell-based; details: 48 h at the IC50 concentration of each compound, KRAS mutated
# Experimental: SW480 cells were exposed for 48 h, at the IC50 concentration of each compound before protein extraction and Western blot analysis.
# SW480 cell line [3] = details: IC50 of PMC79, 48 h
# Experimental: After 48 h, cells were processed according with (Teixeira et al., 2018). Slides were maintained at −20° C. until visualization in a fluorescence microscope (Leica DM 5000B, Leica Microsystems, Wetzlar, Germany).
# DAPI ([…]), FITC (fluorescein isothiocyanate) and merged were obtained by fluorescence microscopy.
# SW480 cell line [4] = test: Colony formation assay; details: 48 h with ¼ IC50 and ½ IC50, SW480
# Experimental: SW480 cell line was seeded, at a concentration of 500 cells/ml, in 6-well plates. […] The negative control cells were treated with DMSO 0.1%. […] Medium was renewed every 3 days. Nine days after removing the treatments, cells were stained as previously described (Côrte-Real, Karas, Brás, et al., 2019).
# The FIG. 1 illustrates the analysis of the colony formation ability, after 48 h of incubation with ¼ IC50 and ½ IC50, in SW480 cell line. […] The values represent mean±S.D. of at least three independent experiments. Statistical analysis was performed by one-way ANOVA with Dunnett's multiple comparisons test. ****P≤ 0.0001 compared with negative control.
# MDA-MB-231 = details: read-out: IC50 MDA-MB-231 (PMC79); breast cancer cell line; cited from earlier work
# SW480 cell line [5] = test: Wound healing assay; details: IC50 and 2×IC50, 12 h
# Experimental: SW480 cell line was seeded at a concentration of 7×10^5 cells/ml, in 6-well plates. […] The negative control cells were treated with DMSO 0.1%. Each condition was photographed at 0 h, 4 h, 8 h and 12 h. To analyze the data and measure the wound size at each time-point ImageJ 1.53a software was used.
# Values represent mean±S.D. of at least three independent experiments. Statistical analysis was performed by one-way ANOVA with Turkey's multiple comparisons test. *P≤0.05; ***P≤0.001 compared with negative control.
# [6] = test system: KRAS, pAKT, total-AKT, pERK and total-ERK proteins in RKO cells; test: Western blot analysis, RKO cell line harboring wild-type KRAS; assay type: cell-based; details: 48 h with IC50 values
# SW480 cell line [7] = test system: SW480 cell line
# Experimental: SW480 cell line was seeded in 6-well plates. […] 24 h and 48 h later, cells were collected and processed according to the method described in (Teixeira et al., 2018). Cell-cycle phase data analysis and quantification was performed using FlowJo 10.7.2 software.
# A2780 = details: read-out: IC50 A2780; ovarian cancer cell line; cited from earlier work
# [8] = test system: KRAS, pAKT, total-AKT, pERK and total-ERK proteins, in LS174T cells; details: 48 h of incubation, KRAS mutation
# Experimental: Preparation of total protein extracts of colorectal cancer cell lines (RKO, LS174T and SW480), SDS-PAGE and Western blots were performed as previously described (Alves et al., 2015).
# The Antibodies used were anti-KRAS and β-actin (Sigma); anti-phospho p44/42 MAPK (Thr202/Tyr204) (pERK), anti-p44/42 total (ERK), anti-phospho Akt (Ser473) (pAKT) and anti-Akt total (Cell Signaling) (AKT); GAPDH (Gene Tex). Proteomic study
# GAPDH immunoblot was used as a loading control. The results were obtained from at least three independent experiments.
# SW480 = details: IC50 value, 48 h
# Experimental: Acquisition was performed using CytoFLEX Cytometer (Beckman Coulter, Brea, CA, USA).
# The FIG. 4 illustrates the apoptotic cell death analysis.
# SW480 cell line [9] = details: IC50 value, 48 h
# Experimental: SW480 cell line was seeded in 12-well plates with one coverslip per well. […] After 48 hours of incubation, the cells were fixed and stained as previously described (Pilon et al., 2020). Representative images were obtained in a fluorescence microscope (Olympus motorized BX63F Upright Microscope) (Olympus@, Tokyo, Japan) at a magnification of 600×.
# Representative images (×600) of DAPI (4′,6-diamidino-2-phenylindole), Phalloidin-AlexaFluor 568 and merged were obtained in a fluorescence microscope. The results were obtained from at least three independent experiments.
# [10] = test system: proteins involved in MAPK and PI3K signaling pathways, in SW480 cells; details: SW480, 48 h, IC50 of PMC79
# Experimental: Samples were processed for LC-MS/MS analysis (Chiva et al. 2018; Olivella et al. 2021). Protein identification and validation, and gene ontology, localization and network analysis were performed as previously described (Perkins et al., 1999; Beer et al., 2017; Perez-Riverol et al., 2022).
# Values represent mean of at least three independent experiments.
# breast cancer cell lines [11] = details: cited from earlier work; remark: listed apart in the source
# MCF7 = details: breast cancer cell line; cited from earlier work
# breast cancer cell lines [12] = details: cited from earlier work; remark: listed apart in the source
# SW480 CRC cell line = details: read-out: IC50 in SW480 CRC cell line; Sulforhodamine B, 48 h
# Experimental: (§1) The noncancerous NCM460 cell line derived from normal colon epithelial mucosa, was obtained from INCELL's (Moyer et al., 1996), and the colorectal cancer derived cell lines, SW480, LS174T and RKO, were obtained from American Type Culture Collection (ATCC). All cell lines were maintained at 37° C. under a humidified atmosphere containing 5% CO2. NCM460 and SW480 cells were grown in RPMI medium and LS174T and RKO cells in DMEM, all supplemented with 10% FBS and 1% penicillin/streptomycin. SW480 cell were seeded normally at a concentration of 1×10^5 cells/ml except for some specific assays.
# (§2) After 48 h of treatment, Sulforhodamine B was performed as previously described (Côrte-Real et al., 2019). Results were expressed relatively to the negative control (1), which was considered as 100% of cell growth.
# (§3) Values represent mean+SD of at least three independent experiments.
# [13] = test system: noncancerous NCM460 cell line derived from normal colon epithelial mucosa; details: read-out: IC50 in noncancerous cell line NCM460; Sulforhodamine B, 48 h
# Experimental: as §1, §2, §3
smiles,measurement,setting,value
"O=S(=O)([O-])C(F)(F)F.OCc1ccnc(-c2cc(CO)ccn2)c1.[Ru+2].c1cc[cH-]c1.c1ccc(P(c2ccccc2)c2ccccc2)cc1 [PMC79, ({2,2′-bipyridine}-4,4′-diyldimethanol-k^2N, N′)(η^5-cyclopentadienyl) (6riphenylphosphine) ruthenium (II) triflate]",proliferation (CFSE median fluorescence intensity),SW480 cells,decrease in proliferation under all conditions
same,apoptosis (Annexin V stained cells) in breast cancer cell lines,breast cancer cell lines [1],induced apoptosis
same,"expression of KRAS, pERK, total-ERK, pAKT and total-AKT in SW480",[2],inhibit to a very high extent
same,TUNEL positive cells,SW480 cell line [3],increase of the number of apoptotic cells (TUNEL positive)
same,clonogenic ability (colony formation),SW480 cell line [4],significantly decreased the clonogenic ability
same,IC50,MDA-MB-231,2100 nM
same,percentage of wound closure,SW480 cell line [5],decreased the percentage of wound closure in a dose-dependent manner
same,"expression of KRAS, pERK, total-ERK, pAKT and total-AKT in RKO",[6],no effect
same,cell cycle alteration at 24 h,"SW480 cell line [7]; IC50 of PMC79, 24 h",cell cycle arrest at G0/G1 phase
same,cell cycle alteration at 48 h,"SW480 cell line [7]; IC50 of PMC79, 48 h",increase of sub-G1 population
same,IC50,A2780,3.9 µM
same,"expression of KRAS, pERK, total-ERK, pAKT and total-AKT in LS174T",[8],able to inhibit the expression
same,necrotic cells (AV−/PI+),SW480,10%
same,percentage of apoptotic cells (AV+/PI−; AV+/PI+),SW480,74%
same,F-actin organization and morphology,SW480 cell line [9],affect cell-cell adhesion and intercellular contacts establishment
same,"Abundance Ratio (log2): (pmc79)/(Control), AKT1",[10],−0.4039
same,"Abundance Ratio (log2): (pmc79)/(Control), AKT2",[10],−0.2506
same,"Abundance Ratio (log2): (pmc79)/(Control), EGFR",[10],−0.948
same,"Abundance Ratio (log2): (pmc79)/(Control), ERK1",[10],−0.3601
same,"Abundance Ratio (log2): (pmc79)/(Control), KRAS",[10],−0.4019
same,"Abundance Ratio (log2): (pmc79)/(Control), MEK1",[10],−0.5421
same,"Abundance Ratio (log2): (pmc79)/(Control), MEK2",[10],−0.2365
same,"Abundance Ratio (log2): (pmc79)/(Control), MTOR",[10],−1.326
same,"Abundance Ratio (log2): (pmc79)/(Control), PIK3C3",[10],−0.1795
same,"Abundance Ratio (log2): (pmc79)/(Control), PIK3R4",[10],−0.5555
same,abundance of all proteins involved in KRAS signaling pathways versus control,"[10]; EGFR, KRAS, MEK 1, MEK 2, ERK1, PIK3, AKT1, AKT2, MTOR",less abundant
same,proliferation / colony formation ability in breast cancer cell lines,breast cancer cell lines [11],inhibited proliferation by decreasing colony formation ability
same,IC50,MCF7,5.9 µM
same,mitochondria morphology and actin cytoskeleton in breast cancer cell lines,breast cancer cell lines [12],induced alterations in mitochondria morphology
same,IC50,SW480 CRC cell line,40 µM
same,IC50,[13],44 µM
"N.N.[Cl][Pt][Cl] [cisplatin, reference compound]","expression of KRAS, pERK, total-ERK, pAKT and total-AKT in SW480",[2],not observed
same,"expression of KRAS, pERK, total-ERK, pAKT and total-AKT in RKO",[6],The same was also observed

# Source: US20250186457A1, “USE OF AN ORGANOMETALLIC RUTHENIUM COMPOUND FOR THE PREVENTION AND/OR TREATMENT OF DISEASES AND/OR CONDITIONS RELATED TO CANCER IN AN INDIVIDUAL” (FACULDADE DE CIÊNCIAS DA UNIVERSIDADE DE LISBOA, priority 2022, published 2025)
